Source: patent publication US6420385B1, “Substituted pyrimidinone and pyridone compounds and methods of use” (Amgen Inc., priority 1996, dated 2002)
pIC50: −log10 of the molar value.

Tested on: TNF production by monocytes activated with bacterial lipopolysaccharide (LPS)
Assay: Lipopolysaccharide-activated monocyte TNF production assay (LPS induced TNF release)
Format: cell-based, human
Conditions: TNF in supernatant by ELISA
Experimental: Lipopolysaccharide-activated Monocyte TNF Production Assay
Test compounds were evaluated in vitro for the ability to inhibit the production of TNF by monocytes activated with bacterial lipopolysaccharide (LPS). Fresh residual source leukocytes (a byproduct of plateletpheresis) were obtained from a local blood bank, and peripheral blood mononuclear cells (PBMCs) were isolated by density gradient centrifugation on Ficol-Paque Plus (Pharmacia). PBMCs were suspended at 2×10^6/ ml in DMEM supplemented to contain 2% FCS, 10 mM, 0.3 mg/ml glutamate, 100 U/ml penicillin G and […] streptomycin sulfate (complete media). Cells were plated into Falcon flat bottom, 96 well culture plates (200 μl/well) and cultured overnight at 37° C. and 6% CO2. Non-adherent cells were removed by washing with 200 μl/well of fresh medium. Wells containing adherent cells (˜70% monocytes) were replenished with 100 μl of fresh medium.
Preparation of Test Compound Stock Solutions
Test compounds were dissolved in […]. Compound stock solutions were prepared to an initial concentration of […]. Stocks were diluted initially to 20-200 μM in complete media. Nine two-fold serial dilutions of each compound were then prepared in complete medium.
Treatment of Cells with Test Compounds and Activation of TNF Production with Lipopolysaccharide
One hundred microliters of each test compound dilution were added to microtiter wells containing adherent monocytes and 100 μl complete medium. Monocytes were cultured with test compounds for 60 min at which time 25 μl of complete medium containing 30 ng/ml lipopolysaccharide from E. coli K532 were added to each well. Cells were cultured an additional 4 hrs. Culture supernatants were then removed and TNF presence in the supernatants was quantified using an ELISA.
Flat bottom, 96 well Corning High Binding ELISA plates were coated overnight (4° C.) with 150 μL/well of 3 μg/ml murine anti-human TNF-α MAb (R&D Systems #MAB210). Wells were then blocked for 1 hr at room temperature with 200 μL/well of CaCl2-free ELISA buffer supplemented to contain 20 mg/ml BSA (standard ELISA buffer: […], 150 mM NaCl, 2 mM CaCl2, 0.15 mM thimerosal, pH 7.4). Plates were washed and replenished with 100 μl of test supernatants (diluted 1:3) or standards. Standards consisted of eleven 1.5-fold serial dilutions from a stock of 1 ng/ml recombinant human TNF (R&D Systems). Plates were incubated at room temperature for 1 hr on orbital shaker (300 rpm), washed and replenished with 100 μl/well of 0.5 μg/ml goat anti-human TNF-α (R&D systems #AB-210-NA) biotinylated at a 4:1 ratio. Plates were incubated for 40 min, washed and replenished with 100 μl/well of alkaline phosphatase-conjugated streptavidin (Jackson ImmunoResearch #016-050-084) at 0.02 μg/ml. Plates were incubated 30 min, washed and replenished with 200 μl/well of 1 mg/ml of p-nitrophenyl phosphate. After 30 min, plates were read at […] on a Vmax plate reader.
Standard curve data were fit to a second order polynomial and unknown TNF-α concentrations determined from their OD by solving this equation for concentration. TNF concentrations were then plotted vs. test compound concentration using a second order polynomial. This equation was then used to calculate the concentration of test compounds causing a 50% reduction in TNF production.

SMILES | pIC50 | pIC50 (Homo sapiens, Monocyte)
Cc1ccccc1C(N)CCNc1nc(-c2ccncc2)c(-c2cccc(C(F)(F)F)c2)c(=O)n1C (stereo not shown) [2-((3-Amino-3-(2-methylphenyl)propyl)-amino)-3-methyl-6-(4-pyridyl)5-(3-trifluoromethylphenyl)-4-(3H)-pyrimidinone] | ≥ 5.30 | –
Cn1c(NCCC(N)c2ccccc2)nc(-c2ccncc2)c(-c2cccc(C(F)(F)F)c2)c1=O (stereo not shown) [2-((3-Amino-3-phenylpropyl)-amino)-3-methyl-6-(4-pyridyl)5-(3-trifluoromethylphenyl)-4-(3H)-pyrimidinone] | ≥ 5.30 | –
O=c1[nH]c(-c2ccccc2)cc(-c2ccncc2)c1-c1ccccc1 [3,6-Diphenyl-4-(4-pyridyl)-2(1H)-pyridone] | – | ≥ 4.70
O=c1[nH]c(-c2cccs2)cc(-c2ccncc2)c1-c1ccccc1 [3-Phenyl-4-(4-pyridyl)-6-(2-thienyl)-2(1H)-pyridone] | – | ≥ 4.70
Cc1ccc(-c2cc(-c3ccncc3)c(-c3ccccc3)c(=O)[nH]2)c(C)c1 [6-(2,4-Dimethylphenyl)-3-phenyl-4-(4-pyridyl)-2(1H)-pyridone] | – | ≥ 4.70
O=c1[nH]c(-c2ccco2)cc(-c2ccncc2)c1-c1ccccc1 [6-(2-Furyl)-3-phenyl-4-(4-pyridyl)-2(1H)-pyridone] | – | ≥ 4.70
Cc1ccc(-c2cc(-c3ccncc3)c(-c3ccccc3)c(=O)[nH]2)cc1 [6-(4-Methylphenyl)-3-phenyl-4-(4-pyridyl)-2(1H)-pyridone] | – | ≥ 4.70
